Counter-ions that a name gives are not always drawn.

The target in one assay is T1, human GPR120 (Homo sapiens, UniProt Q5NUL3).
T1 construct: expressed in transfected cells
T1 sequence (Q5NUL3 1-361): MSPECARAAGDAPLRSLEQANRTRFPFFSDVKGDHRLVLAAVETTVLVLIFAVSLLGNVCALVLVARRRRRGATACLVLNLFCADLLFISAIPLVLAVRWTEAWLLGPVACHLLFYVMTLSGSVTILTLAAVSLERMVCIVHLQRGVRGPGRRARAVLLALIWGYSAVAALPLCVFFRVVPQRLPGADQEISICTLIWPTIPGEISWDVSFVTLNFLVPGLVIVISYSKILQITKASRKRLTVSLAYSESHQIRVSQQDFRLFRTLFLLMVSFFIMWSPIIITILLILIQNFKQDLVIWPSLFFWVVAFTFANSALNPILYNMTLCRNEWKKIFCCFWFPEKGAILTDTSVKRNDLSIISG
Briefly: Measurement of intracellular calcium concentration (FLIPR), GPR120 agonist action. Type of assay: cell-based. Particulars: 10 μmol/l test compound, human GPR120 expression CHO cells, Fluo-4 AM. The procedure:
Using Lipofectamine 2000 (Invitrogen), cDNA of GPR120 receptor was transfected into CHO/NFAT-BLA cells, and drug-resistant cells were isolated to obtain GPR120 stable expression strains. The GPR120-expressed CHO cells were cultured in DMEM/F12 medium containing 10% fetal bovine serum, 100 units/ml penicillin, 0.1 mg/ml streptomycin sulfate, 250 μg/ml Zeocin, 500 μg/mL Geneticin and 15 mM HEPES. On the day before the measurement day, 4 μM Fluo-4 AM (fluorescence calcium indicator reagent) was incubated to be introduced into the human GPR120 expression CHO cells plated at 20000 cells per well of a 96-well black plate (ViewPlate; Packard) in the presence of 2.5 mM probenecid in a CO2 incubator for 1 hour. To the cells was added the test compound diluted with HBSS solution containing 20 mM HEPES and 2.5 mM probenecid. Variations in the intracellular calcium concentration were measured by Fluorescence Imaging Plate Reader (FLIPR; Molecular Devices) to examine the agonist action, and EC50 values were calculated.
For the compound `CC(C)Oc1cccc(CC(C)Oc2ccc(-c3cc(O)no3)c(F)c2)c1` (centres unmarked) [Example 6, 5-{2-fluoro-4-[2-(3-isopropoxyphenyl)-1-methylethoxy]phenyl}isoxazol-3-01], the “Agonistic activity at 10 μmol/l (%)” value came to 98%.
Consider “5-{4-[(2,2-difluoro-2-{3-[(1-methylethyl)oxy]phenyl}ethyl)oxy]phenyl}isoxazol-3-ol [Example 30]”, for which the “Agonistic activity at 10 μmol/l (%)” value is 91%.
As for “N-[4-(3-hydroxyisoxazol-5-yl)benzyl]-3-isopropoxy-N-methylbenzenesulfonamide [Example 51]”, the “Agonistic activity at 10 μmol/l (%)” value was found to be 77%.
For the compound `CC(C)Oc1cccc(C[C@@H](C)Oc2ncc(-c3cc(O)no3)cn2)c1` [Example 32, 5-{2-[((1R)-1-methyl-2-{3-[(1-methylethyl)oxy]phenyl}ethyl)oxy]pyrimidin-5-yl}isoxazol-3-01], the “Agonistic activity at 10 μmol/l (%)” value is on record as 91%.
As for `CC(C)Oc1cccc(C(C)(C)COc2ccc(-c3cc(O)no3)cn2)c1.O=C(O)C(F)(F)F` [Example 44], the “Agonistic activity at 10 μmol/l (%)” value amounted to 99%.
As to `CC(Cc1ccc(-c2cc(O)no2)cc1)Oc1cccc(OC(F)(F)F)c1` (centres unmarked) [Example 19], the “Agonistic activity at 10 μmol/l (%)” value worked out at 96%.

The assay is the same for the next values; noted with them: 10 μmol/l test compound, human GPR120 expression CHO cells, Fluo-4 AM, read-out: Agonistic activity at 10 μmol/l (%).
Consider `CC(C)Oc1cccc(C[C@@H](C)Oc2ccc(-c3cc(O)no3)c(F)c2)c1` [Example 28, 5-{2-fluoro-4-[((1R)-1-methyl-2-{3-[(1-methylethyl)oxy]phenyl}ethyl)oxy]phenyl}isoxazol-3-ol], for which the activation at 10 µM was determined as 97%.
Turning to `CC(C)Oc1cc(C[C@@H](C)Oc2ccc(-c3cc(O)no3)cc2)ccn1` [Example 64, 5-(4-(((1R)-1-methyl-2-(2-((1-methylethyl)oxy)pyridin-4-yl)ethyl)oxy)phenyl)isoxazol-3-ol Sodium Salt], the activation at 10 µM was determined as 104%.
Still for that read-out and setting: as for `CC(C)Oc1cccc(N(C)C(C)Cc2ccc(-c3cc(O)no3)cc2)c1` (centres unmarked) [Example 58, 5-(4-{2-[(3-isopropoxyphenyl)(methyl)amino]propyl}phenyl)isoxazol-3-ol], the figure is 91%; as for `CC(C)Oc1cccc(CN(C)C(C)c2ccc(-c3cc(O)no3)cc2)c1` (centres unmarked) [Example 49, 1-[4-(3-hydroxyisoxazol-5-yl)phenyl]-N-(3-isopropoxybenzyl)-N-methylethanamine Trifluoroacetate], 84%; as for `CC(C)Oc1cccc(OC(C)Cc2ccc(-c3cc(O)no3)cc2)c1` (centres unmarked) [Example 52, 5-{4-[2-(3-isopropoxyphenoxy)propyl]phenyl}isoxazol-3-ol], 96%.
On the same count and under the same terms, as for `CC(Cc1cccc(N(C)C)c1)Oc1ccc(-c2cc(O)no2)cc1` (centres unmarked) [Example 45, 3-{2-[4-(3-hydroxyisoxazol-5-yl)phenoxy]propyl}-N,N-dimethylaniline Hydrochloride], the figure is 85%; as for `CC(Cc1cccc(OC(C)C)c1)Nc1ccc(-c2cc(O)no2)cc1` (centres unmarked) [Example 59, 4-(3-hydroxyisoxazol-5-yl)-N-[2-(3-isopropoxyphenyl)-1-methylethyl]aniline Trifluoroacetate], 96%; as for `CCOc1cccc(CC(C)Oc2ccc(-c3cc(O)no3)cn2)c1` (centres unmarked) [Example 43, 2-[2-(3-ethoxyphenyl)-1-methylethoxy]-5-(3-hydroxyisoxazole-5-yl)pyridinium Trifluoroacetate], 94%.
Still for that read-out and setting: as for `CC(Cc1ccc(-c2cc(O)no2)cc1)Oc1ccccc1` (centres unmarked) [Example 10, 5-(4-(2-phenoxypropyl)phenyl)isoxazol-3-ol], the figure is 93%.
In the case of `CC(C)Oc1cccc(C(F)(F)COc2ccc(-c3cc(O)no3)cc2)c1` [Example 36, 5-(4-(2,2-difluoro-2-(3-isopropoxyphenyl)ethoxy)phenyl)isoxazol-3-ol], the activation at 10 µM is 100%.
Same read-out and setting: the value for `CC(C)Oc1cccc(CN(C)Cc2ccc(-c3cc(O)no3)cc2)c1` [Example 9, 5-(4-(((3-isopropoxybenzyl)(methyl)amino)methyl)phenyl)isoxazol-3-ol] was 100%.
The same measure, in the same setting: as for `COc1cc(-c2cc(O)no2)ccc1OC(C)Cc1cccc(OC(C)C)c1` (centres unmarked) [Example 61, 5-{4-[2-(3-isopropoxyphenyl)-1-methylethoxy]-3-methoxyphenyl}isoxazol-3-ol], the figure is 79%; as for `CC(C)Oc1cccc(C(F)COc2ccc(-c3cc(O)no3)cc2)c1` (centres unmarked) [Example 29, 5-{4-[(2-fluoro-2-{3-[(1-methylethyl)oxy]phenyl}ethyl)oxy]phenyl}isoxazol-3-ol], 102%; as for `CC(C)Oc1cccc(C(=O)C(C)Oc2ccc(-c3cc(O)no3)cc2)c1` (centres unmarked) [Example 46, 2-[4-(3-hydroxyisoxazol-5-yl)phenoxy]-1-(3-isopropoxyphenyl)propan-1-one], 91%.
Take `C[C@H](Cc1ccc(OC(F)(F)F)cc1)Oc1ccc(-c2cc(O)no2)cc1` [Example 24, 5-{4-[((1R)-1-methyl-2-{4-[(trifluoromethyl)oxy]phenyl}ethyl)oxy]phenyl}isoxazol-3-ol]: the activation at 10 µM was determined as 86%.
Same read-out and setting: as for `CC(C)Oc1cccc(C[C@@H](C)Oc2ccc(-c3cc(O)no3)cn2)c1` [Example 26, 5-{6-[((1R)-1-methyl-2-{3-[(1-methylethyl)oxy]phenyl}ethyl)oxy]pyridin-3-yl}isoxazol-3-ol Hydrochloride], the figure is 100%; as for `CC(C)Oc1cccc(C(C)N(C)Cc2ccc(-c3cc(O)no3)cc2)c1` (centres unmarked) [Example 41, 5-(4-{[[1-(3-isopropoxyphenyl)ethyl](methyl)amino]methyl}phenyl)isoxazol-3-ol], 87%; as for `CC(C)Oc1cccc(CC(C)Oc2ccc(-c3cc(O)no3)cc2F)c1` (centres unmarked) [Example 54, 5-{3-fluoro-4-[2-(3-isopropoxyphenyl)-1-methylethoxy]phenyl}isoxazol-3-ol], 100%.
Take `CC(C)Oc1cccc(C(C)COc2ccc(-c3cc(O)no3)cc2)c1` (centres unmarked) [Example 4, 5-(4-(2-(3-isopropoxyphenyl)propoxy)phenyl)-isoxazol-3-ol]: the activation at 10 µM amounted to 98%.
The same measure, in the same setting: the value for `COc1cccc(OC(C)Cc2ccc(-c3cc(O)no3)cc2)c1` (centres unmarked) [Example 12, 5-(4-(2-(3-methoxyphenoxy)propyl)phenyl)isoxazol-3-ol] was 95%; that for `CC(C)Oc1cccc(SC(C)Cc2ccc(-c3cc(O)no3)cc2)c1` (centres unmarked) [Example 55, 5-(4-{2-[(3-isopropoxyphenyl)thio]propyl}phenyl)isoxazol-3-ol] was 101%.
Still for that read-out and setting: as for `C[C@H](Cc1ccc(Cl)c(OC(F)(F)F)c1)Oc1ccc(-c2cc(O)no2)cc1` [Example 25, 5-{4-[((1R)-2-{4-chloro-3-[(trifluoromethyl)oxy]phenyl}-1-methylethyl)oxy]phenyl}isoxazol-3-ol], the figure is 91%; as for `CC(C)Oc1cccc(C(C)SCc2ccc(-c3cc(O)no3)cc2)c1` (centres unmarked) [Example 50, 5-[4-({[1-(3-isopropoxyphenyl)ethyl]thio}methyl)phenyl]isoxazol-3-ol], 80%.
As for `CC(C)Oc1cccc(C(F)(F)COc2ccc(-c3cc(O)no3)c(F)c2)c1` [Example 57, 5-{4-[2,2-difluoro-2-(3-isopropoxyphenyl)ethoxy]-2-fluorophenyl}isoxazol-3-ol], the activation at 10 µM was found to be 98%.
Consider `CC(Cc1ccc(-c2cc(O)no2)cc1)Oc1cccc(C(F)(F)F)c1` (centres unmarked) [Example 13, 5-(4-(2-(3-(trifluoromethyl)phenoxy)propyl)phenyl)isoxazol-3-ol], for which the activation at 10 µM was 93%.
For `CCC(Cc1cccc(OC(C)C)c1)Oc1ccc(-c2cc(O)no2)cc1` (centres unmarked) [Example 34, 5-(4-(2-(3-isopropoxyphenyl)-1-ethylethoxy)phenyl)isoxazol-3-ol], the activation at 10 µM was found to be 90%.

(Values after US20110065739A1, “NOVEL ISOXAZOLE DRIVATIVE” (priority 2008, published 2011).)
